Test system: Aspergillus brasiliensis (ATCC 16404)
Test: Evaluation test for microbicidal effect, suspension test EN 13624:2013 (clean conditions)
Assay type: cell-based
Conditions: equal molar amount instead of glycine in the formula of Example 1-1

| SMILES | enhancement of the microbicidal activity of the acidic oxidant of peracetic acid and hydrogen peroxide (in words) |
| --- | --- |
| CC(=O)O [acetic acid] | could not enhance the microbicidal activity |
| O=P([O-])([O-])[O-].[Na+].[Na+].[Na+] [trisodium phosphate] | could not enhance the microbicidal activity |
| O=P([O-])([O-])O.[K+].[K+] [dipotassium hydrogen phosphate] | could not enhance the microbicidal activity |

Source: patent US12514943B2 (priority 2020, dated 2026)
